Test results published in patent US5962502A, “Polyamidic acid derivatives with antigastrin activity, a method for their preparation, and their pharmaceutical use” (priority 1993, dated 1999).

Experiments:
[1] = biological target: T1, gastrin receptors or type-B cholecystokinin (CCK-B) receptors (Oryctolagus cuniculus, UniProt P46627); assay: Inhibition of the gastrin-induced increase of cytosolic calcium in rabbit gastric mucous-membrane cells (Fura 2); type: cell-based; settings: for Ratio IC50 Binding cortex / IC50 (gastric mucous cells): binding values taken from Table 3; for IC50, inhibition of the increase of cytosolic calcium: rabbit gastric mucous cells enriched in parietal cells, gastrin 5×10^-8; for CCK-B-antagonistic activity IC50 (II): data taken from Table 4 (rabbit gastric mucous cells), reprinted in Table 6
T1 construct: Rabbit gastric mucous-membrane cells were prepared by conventional techniques; endogenous in cells; host or cells: freshly isolated rabbit gastric mucosal cells, enriched by elutriation to about 70% parietal cells
T1 sequence (P46627 1-452): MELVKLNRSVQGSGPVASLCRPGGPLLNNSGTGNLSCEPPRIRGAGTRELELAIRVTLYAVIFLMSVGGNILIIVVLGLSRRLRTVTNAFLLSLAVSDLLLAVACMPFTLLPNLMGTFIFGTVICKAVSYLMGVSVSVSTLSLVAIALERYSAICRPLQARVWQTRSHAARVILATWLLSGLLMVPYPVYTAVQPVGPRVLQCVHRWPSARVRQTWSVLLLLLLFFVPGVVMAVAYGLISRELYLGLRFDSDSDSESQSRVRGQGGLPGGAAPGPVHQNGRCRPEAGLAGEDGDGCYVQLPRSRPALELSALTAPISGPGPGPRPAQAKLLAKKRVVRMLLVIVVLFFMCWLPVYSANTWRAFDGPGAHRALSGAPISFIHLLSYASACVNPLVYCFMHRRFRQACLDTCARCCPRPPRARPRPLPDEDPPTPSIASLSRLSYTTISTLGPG
Excerpt: The parietal cells of the gastric mucous membrane are responsible for the secretion of HCl. They have specific membrane receptors which can be activated by gastrin and which have been defined as gastrin receptors or type-B cholecystokinin (CCK-B) receptors. Since it has been observed that the activation of the CCK-B receptors by gastrin leads to an increase in the cytosolic levels of calcium ions, a technique involving the measurement of the increase in intracellular calcium induced by gastrin in the presence and in the absence of the compounds of the invention was used as an index of the antigastrin activity of the compounds. Rabbit gastric mucous-membrane cells were prepared by conventional techniques with the use of collagenase and pronase as digestive enzymes. The cellular preparation obtained by the enzymatic digestion was composed of parietal cells, zymogen cells and mucous-membrane cells. […] The cells were then washed and resuspended in a saline solution buffered with HEPES containing, in mM: […] Each measurement was carried out on cells in suspension (0.8×10^6 /ml) at a thermostatically-controlled temperature of 37° C. and with constant magnetic stirring. The fluorescence was recorded with the use of a spectrofluorometer. The operative wavelengths were 340/380 nm for excitation and 505 nm for emission. […] Biol. Chem. 260 (1985), 3440]. […] The results thus obtained for some compounds of the invention are given in Table 4, which also gives an index derived from the ratio between the peripheral antigastrin activity just described and the displacement activity found in the test on binding to the guinea-pig cortex receptors described above.

central CCK-B receptor = biological target: T2, central CCK-B receptor (Cavia porcellus, UniProt H0VZC5); assay: Inhibition of the binding of [3-H][N-methyl-N-leucine]CCK-8 to guinea-pig cortical membranes; settings: for IC50: 150 minutes at 25° C.
T2 construct: Cerebral cortices of male white guinea-pigs were thus used; from tissue; host or cells: cerebral cortex membranes of male white guinea-pigs
T2 sequence (H0VZC5 1-426): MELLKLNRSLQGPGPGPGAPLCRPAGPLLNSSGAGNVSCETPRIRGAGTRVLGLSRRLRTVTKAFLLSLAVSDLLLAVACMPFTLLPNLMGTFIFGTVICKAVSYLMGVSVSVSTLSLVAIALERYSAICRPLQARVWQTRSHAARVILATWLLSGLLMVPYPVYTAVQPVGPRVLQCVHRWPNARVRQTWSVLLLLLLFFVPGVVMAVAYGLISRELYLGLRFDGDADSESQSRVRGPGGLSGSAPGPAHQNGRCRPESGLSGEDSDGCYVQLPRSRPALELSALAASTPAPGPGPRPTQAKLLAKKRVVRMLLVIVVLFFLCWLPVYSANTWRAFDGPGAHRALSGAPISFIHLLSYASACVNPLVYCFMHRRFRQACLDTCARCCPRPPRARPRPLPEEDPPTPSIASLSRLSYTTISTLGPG
Description: The ability of the compounds of the invention to interact with the central CCK-B receptor was evaluated with the use of non-sulphated [3-H] […] 225 (3) (1990), 1278-1286].
Cerebral cortices of male white guinea-pigs were thus used, according to the method mentioned above, so as to obtain a membrane content corresponding to about 300 mcg of proteins/ml. The membranes were incubated together with the radioactive tracer and the compounds under test for 150 minutes at 25° C. After the supernatant had been discarded, the radioactivity associated with the pellet was determined with a liquid scintillator. The specific binding was determined as the difference between the binding in the absence and in the presence of 5.10^-6 M CCK-8.

CCK-A = biological target: T3, CCK-A (Cavia porcellus, UniProt Q63931); assay: Anti-CCK-A activity on guinea-pig gall bladder stimulated in vitro by CCK-8; settings: for Ratio I/II (CCK-A IC50 / CCK-B IC50): gall bladder IC50 over gastric mucous cells IC50; for IC50: guinea-pig gall bladder in vitro, CCK-8 10 ng/ml, read-out: CCK-A-antagonistic activity IC50 (I)
T3 construct: A longitudinal strip of guinea-pig gall-bladder was put in a bath for isolated organs; from tissue; host or cells: guinea-pig gall bladder longitudinal strip
T3 sequence (Q63931 1-430): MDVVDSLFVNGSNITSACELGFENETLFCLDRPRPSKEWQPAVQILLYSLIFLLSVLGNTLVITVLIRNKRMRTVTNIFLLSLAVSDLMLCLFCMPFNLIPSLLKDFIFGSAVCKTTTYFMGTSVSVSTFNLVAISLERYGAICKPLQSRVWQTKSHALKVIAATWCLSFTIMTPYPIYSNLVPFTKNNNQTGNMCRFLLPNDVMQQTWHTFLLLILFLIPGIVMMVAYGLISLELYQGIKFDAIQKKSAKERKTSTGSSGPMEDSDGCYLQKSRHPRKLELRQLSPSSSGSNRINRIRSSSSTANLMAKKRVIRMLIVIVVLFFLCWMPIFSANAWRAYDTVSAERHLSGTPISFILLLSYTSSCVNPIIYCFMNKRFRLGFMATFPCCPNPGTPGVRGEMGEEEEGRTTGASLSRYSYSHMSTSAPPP
Description: The experimental model used was guinea-pig gall bladder stimulated in vitro by CCK-8, with the use of lorglumide as the reference standard. A longitudinal strip of guinea-pig gall-bladder was put in a bath for isolated organs in the presence of Krebs buffer at a temperature of 32° C., with continuous oxygenation with an oxygen-CO2 mixture (95-[…]). The isometric contractions were detected by means of a force transducer and recorded.

Compound | Ratio IC50 Binding cortex / IC50 (gastric mucous cells) [1] | IC50, inhibition of the increase of cytosolic calcium [1] | IC50 (central CCK-B receptor; guinea-pig cortical membranes) [nM] | IC50 order of magnitude, peripheral antigastrin activity ([1]; rabbit gastric mucous cells) | inhibition of the binding of [N-methyl-N-leucine]CCK-8, result in words (central CCK-B receptor; guinea-pig cortical membranes) | CCK-B-antagonistic activity IC50 (II) [1] [nM] | Ratio I/II (CCK-A IC50 / CCK-B IC50) (CCK-A) | IC50 (CCK-A) [nM] | times more active than the corresponding diastereoisomer at the carbon atom (**) (central CCK-B receptor; binding, guinea-pig cortex)
CN(CC(=O)O)C(=O)CC[C@@H](NC(=O)c1cc(Cl)cc(Cl)c1)C(=O)N1CCC2(CCCC2)CC1 [Compound 2] | 0.7 | 1500 nM | 610 |  |  |  |  |  | 
CC(C)CC(NC(=O)CC[C@@H](NC(=O)c1cc(Cl)cc(Cl)c1)C(=O)N1CCC2(CCCC2)CC1)C(=O)O (stereo partly drawn) [Compound 6] | 7.6 | 50 nM | 380 |  |  |  |  |  | 
CN(C(=O)CC[C@@H](NC(=O)c1cc(Cl)cc(Cl)c1)C(=O)N1CCC2(CCCC2)CC1)C(Cc1ccccc1)C(=O)O (stereo partly drawn) [Compound 11] | 3.1 | 70 nM | 220 |  |  |  |  |  | 
O=C(CC[C@@H](NC(=O)c1cc(Cl)cc(Cl)c1)C(=O)N1CCC2(CCCC2)CC1)NC(Cc1ccc(O)cc1)C(=O)O (stereo partly drawn) [Compound 18] | 1.6 | 200 nM | 320 |  |  |  |  |  | 
O=C(CC[C@@H](NC(=O)c1cc(Cl)cc(Cl)c1)C(=O)N1CCC2(CCCC2)CC1)N[C@H](CC1CCCCC1)C(=O)O [Compound 28] | 6.5 | 100 nM | 650 |  |  |  |  |  | 
CC1(C)CCC(NC(=O)[C@H](CCC(=O)O)NC(=O)CC[C@@H](NC(=O)c2cc(Cl)cc(Cl)c2)C(=O)N2CCC3(CCCC3)CC2)CC1 [Compound 34] | 10.4 | 70 nM | 730 |  |  |  |  |  | about twice
CC1(C)CCC(NC(=O)[C@@H](CCC(=O)O)NC(=O)CC[C@@H](NC(=O)c2cc(Cl)cc(Cl)c2)C(=O)N2CCC3(CCCC3)CC2)CC1 [Compound 35] | 14.2 | 120 nM | 1700 |  |  |  |  |  | 
O=C(CC[C@@H](NC(=O)c1cc(Cl)cc(Cl)c1)C(=O)N1CCC2(CCCC2)CC1)Nc1ccc(C(=O)O)cc1 [Compound 47] | 4.5 | 380 nM | 1720 |  |  |  |  |  | 
Cc1cc(C(=O)O)ccc1NC(=O)CC[C@@H](NC(=O)c1cc(Cl)cc(Cl)c1)C(=O)N1CCC2(CCCC2)CC1 [Compound 52] | 1.2 | 2330 nM | 2770 |  |  |  |  |  | 
CC(C)(C)CCNC(=O)[C@@H](CCC(=O)Nc1ccc(C(=O)O)cc1)NC(=O)c1cc(Cl)cc(Cl)c1 [Compound 53] |  | IN (IN (inactive) when the IC50 is >3.10^-5 M) | 6400 |  |  |  |  |  | 
CCCCCN(CCCCC)C(=O)C(CCC(=O)O)NC(=O)c1ccc(Cl)c(Cl)c1 (stereo not drawn) [R-lorglumide, reference compound] |  |  |  |  |  |  |  | 50 | 

Continued, values first:

Ratio IC50 Binding cortex / IC50 (gastric mucous cells) [1] | IC50, inhibition of the increase of cytosolic calcium [1] | IC50 (central CCK-B receptor; guinea-pig cortical membranes) [nM] | IC50 order of magnitude, peripheral antigastrin activity ([1]; rabbit gastric mucous cells) | inhibition of the binding of [N-methyl-N-leucine]CCK-8, result in words (central CCK-B receptor; guinea-pig cortical membranes) | CCK-B-antagonistic activity IC50 (II) [1] [nM] | Ratio I/II (CCK-A IC50 / CCK-B IC50) (CCK-A) | IC50 (CCK-A) [nM] | times more active than the corresponding diastereoisomer at the carbon atom (**) (central CCK-B receptor; binding, guinea-pig cortex) | Compound
3.3 | 60 nM | 200 |  |  |  |  |  |  | O=C(CC[C@@H](NC(=O)c1cc(Cl)cc(Cl)c1)C(=O)N1CCC2(CCCC2)CC1)NC(Cc1ccccc1)C(=O)O (stereo partly drawn) [Compound 8]
2.0 | 150 nM | 300 |  |  |  |  |  |  | O=C(CC[C@@H](NC(=O)c1cc(Cl)cc(Cl)c1)C(=O)N1CCC2(CCCC2)CC1)NC(CCc1ccccc1)C(=O)O (stereo partly drawn) [Compound 16]
5.0 | 10 nM | 50 | nanomolar order of magnitude | potent inhibitors |  |  |  |  | O=C(CC[C@@H](NC(=O)c1cc(Cl)cc(Cl)c1)C(=O)N1CCC2(CCCC2)CC1)NC(Cc1c[nH]c2ccccc12)C(=O)O (stereo partly drawn) [Compound 19]
7.6 | 50 nM | 380 |  |  |  |  |  |  | CN(C(=O)CC[C@@H](NC(=O)c1cc(Cl)cc(Cl)c1)C(=O)N1CCC2(CCCC2)CC1)[C@@H](Cc1c[nH]c2ccccc12)C(=O)O [Compound 22]
4.5 | 60 nM | 270 |  |  |  |  |  |  | O=C(CC[C@@H](NC(=O)c1cc(Cl)cc(Cl)c1)C(=O)N1CCC2(CCCC2)CC1)N[C@H](COCc1ccccc1)C(=O)O [Compound 23]
4.3 | 30 nM | 130 |  |  | 30 | 1527 | 45800 |  | O=C(CC[C@@H](NC(=O)c1cc(Cl)cc(Cl)c1)C(=O)N1CCC2(CCCC2)CC1)N[C@H](Cc1ccc2ccccc2c1)C(=O)O [Compound 24]
0.6 | 230 nM | 150 |  |  | 230 | 14.8 | 3400 |  | O=C(CC[C@@H](NC(=O)c1cc(Cl)cc(Cl)c1)C(=O)N1CCC2(CCCC2)CC1)N[C@H](Cc1ccccn1)C(=O)O [Compound 27]
14.7 | 70 nM | 1030 |  |  |  |  |  |  | O=C(C[C@@H](NC(=O)c1cc(Cl)cc(Cl)c1)C(=O)N1CCC2(CCCC2)CC1)N[C@H](Cc1c[nH]c2ccccc12)C(=O)O [Compound 43]
